Test results published in patent US20240279220A1, “INDOLE COMPOUNDS AND METHODS OF USE” (Genzyme Corporation, priority 2021, published 2024).

System: NBD1/3D
Assay: Aggregation analysis using differential static light scattering (DSLS), NBD1 thermal stability
Assay type: binding, Human
Conditions: ΔTagg versus DMSO control; compound at 100 μM
Experimental: Purified recombinant NBD1 was produced using previously described methods (A. Schmidt, J. L. Mendoza, P. J. Thomas (2011) Biochemical and Biophysical Approaches to Probe CFTR Structure (365-376) M. D. Amaral, K. Kunzelmann (eds.), Cystic Fibrosis, Methods in Molecular Biology 741, Springer Science+Business Media). The effect of test compounds on thermal stability of NBD1 was evaluated by differential static light scattering (DSLS) using the Harbinger Stargazer-384 instrument (Epiphyte Three, Toronto, Canada).
Test compounds were dissolved and diluted to desired concentrations in 100% DMSO. The compounds or DMSO controls (100 nL) were stamped into wells of a […] low volume optical plate (Corning Inc., Corning, NY) using the Echo 555 acoustic liquid handler (Labcyte Inc., San Jose, CA).
NBD1 protein was diluted to 0.2 mg/ml in S200 buffer (50 mM Tris-HCl, 150 mM NaCl, 5 mM MgCl2, 2 mM ATP, 2 mM DTT, pH7.6) containing 1% glycerol. 10 uL of protein solution was aliquoted into the 384-well plate harboring the test compounds and 10 uL mineral oil was overlayed onto the protein solution, using the epMotion robotic liquid handler (Eppendorf North America, Hauppauge, NY). After placing into the Stargazer instrument, the plate was heated at 1° C. per minute to 70° C. Images were captured from 25° C. to 70° C. every 0.5° C. At the end of the experiment run, instrument software integrated image files and analyzed data automatically. A […] regression curve was generated for each well, representing the increase in light scattering over time. A temperature of aggregation (Tagg) was calculated based on the inflection point of the curve. To better compare data across experiments the average Tagg for DMSO control wells was calculated and subtracted from values for wells containing compounds to obtain a “ΔTagg” value. These ΔTagg values reflect stabilizing efficacy of the compounds.

Row | SMILES | DSLS NBD1/3D Human Stability delta-T (° C.) @ 100 (μM)
1 | CC(O)(c1cccc([C@@H]2C[C@H]2C(=O)O)c1)c1c[nH]c(-c2cccc(Oc3c(F)cc4[nH]ccc4c3F)c2)n1 (mixture of isomers) [Example 184, rac-(1r,2r)-2-(3-(1-(2-(3-((4,6-Difluoro-1H-indol-5-yl)oxy)phenyl)-1H-imidazol-4-yl)-1-hydroxyethyl)phenyl)cyclopropane-1-carboxylic acid] | B (B: 5-10° C.)
2 | Cc1c(Oc2cccc(-c3nnc(Cc4cccc([C@@H]5C[C@H]5C(=O)O)c4)[nH]3)c2)ccc2[nH]ccc12 (racemic) [Example 243, rac-(1R,2R)-2-(3-((5-(3-((4-Methyl-1H-indol-5-yl)oxy)phenyl)-4H-1,2,4-triazol-3-yl)methyl)phenyl)cyclopropane-1-carboxylic acid] | B (B: 5-10° C.)
3 | Cc1c(Oc2ccc(F)c(-c3ncc([C@]4(c5cccc(CCC(=O)O)c5)C[C@@H](O)CO4)[nH]3)c2)c(F)cc2[nH]ccc12 (racemic) [Example 275, rac-3-(3-((2r,4r)-2-(2-(2-Fluoro-5-((6-fluoro-4-methyl-1H-indol-5-yl)oxy)phenyl)-1H-imidazol-5-yl)-4-hydroxytetrahydrofuran-2-yl)phenyl)propanoic acid] | B (B: 5-10° C.)
4 | Cc1c(Oc2ccc(F)c(-c3ncc(C(C)c4cccc([C@@H]5C[C@H]5C(=O)O)c4F)[nH]3)c2)c(F)cc2[nH]ccc12 (relative stereo) [Example 139E, trans-2-(2-fluoro-3-(1-(2-(2-fluoro-5-((6-fluoro-4-methyl-1H-indol-5-yl)oxy)phenyl)-1H-imidazol-5-yl)ethyl)phenyl)cyclopropane-1-carboxylic acid] | B (B: 5-10° C.)
5 | CC(c1ccn(-c2cccc(Oc3c(F)cc4[nH]ccc4c3S(C)(=O)=O)c2)n1)c1cccc(CCC(=O)O)c1F (single isomer, unassigned) [Example 23A, 3-(2-fluoro-3-(1-(1-(3-((6-fluoro-4-(methylsulfonyl)-1H-indol-5-yl)oxy)phenyl)-1H-pyrazol-3-yl)ethyl)phenyl)propanoic acid] | C (C: ≤5° C.)
6 | CC(c1cccc(CCC(=O)O)c1F)n1ccc(-c2cc(Oc3c(F)cc4[nH]ccc4c3S(C)(=O)=O)ccc2F)n1 (single isomer, unassigned) [Example 41A, 3-(2-fluoro-3-(1-(3-(2-fluoro-5-((6-fluoro-4-(methylsulfonyl)-1H-indol-5-yl)oxy)phenyl)-1H-pyrazol-1-yl)ethyl)phenyl)propanoic acid] | C (C: ≤5° C.)
7 | CC(c1coc(-c2cc(Oc3c(F)cc4[nH]ccc4c3S(C)(=O)=O)ccc2F)n1)c1cccc(CCC(=O)O)c1F (single isomer, unassigned) [Example 43B, 3-(2-fluoro-3-(1-(2-(2-fluoro-5-((6-fluoro-4-(methylsulfonyl)-1H-indol-5-yl)oxy)phenyl)oxazol-4-yl)ethyl)phenyl)propanoic acid] | C (C: ≤5° C.)
8 | [2H]C([2H])([2H])C(C#N)(c1cc(F)cc(CCC(=O)O)c1)c1c[nH]c(-c2cc(Oc3c(F)c(F)c4[nH]ccc4c3F)ccc2F)n1 (single isomer, unassigned) [Example 65, 3-(3-(1-cyano-1-(2-(2-fluoro-5-((4,6,7-trifluoro-1H-indol-5-yl)oxy)phenyl)-1H-imidazol-4-yl)ethyl-2,2,2-d3)-5-fluorophenyl)propanoic acid] | B (B: 5-10° C.)
9 | [2H]C([2H])([2H])C(C#N)(c1cc(F)cc(CCC(=O)O)c1)c1c[nH]c(-c2cc(Oc3c(F)c(F)c4[nH]ccc4c3F)ccc2F)n1 (single isomer, unassigned) [Example 66, 3-(3-(1-cyano-1-(2-(2-fluoro-5-((4,6,7-trifluoro-1H-indol-5-yl)oxy)phenyl)-1H-imidazol-4-yl)ethyl-2,2,2-d3)-5-fluorophenyl)propanoic acid] | B (B: 5-10° C.)
